# Test results reported in ChEMBL document CHEMBL1201862, “PubChem BioAssay data set” (2004).
# The source made the active and inactive calls.
# Experiments:
# [1] = enhancers of respiration in Yfh1-depleted yeast, dose response, Friedreich's ataxia, plus single-dose screen (AID 1465); format: functional;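 note: yeast depleted of Yfh1p frataxin homolog grown on glycerol needing respiration; WST-1 tetrazolium dye reduction as measure of cellular dehydrogenase metabolic activity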
# [2] = biological target: T1, Rac GTPase-activating protein 1 (Homo sapiens, UniProt Q9H0H5); experiment: MgcRacGAP GTPase-activating activity inhibitors, confirmation, biochemical, ADP Hunter fluorescence, primary and confirmatory (AID 624330); format: functional
# T1 sequence (Q9H0H5 whole entry): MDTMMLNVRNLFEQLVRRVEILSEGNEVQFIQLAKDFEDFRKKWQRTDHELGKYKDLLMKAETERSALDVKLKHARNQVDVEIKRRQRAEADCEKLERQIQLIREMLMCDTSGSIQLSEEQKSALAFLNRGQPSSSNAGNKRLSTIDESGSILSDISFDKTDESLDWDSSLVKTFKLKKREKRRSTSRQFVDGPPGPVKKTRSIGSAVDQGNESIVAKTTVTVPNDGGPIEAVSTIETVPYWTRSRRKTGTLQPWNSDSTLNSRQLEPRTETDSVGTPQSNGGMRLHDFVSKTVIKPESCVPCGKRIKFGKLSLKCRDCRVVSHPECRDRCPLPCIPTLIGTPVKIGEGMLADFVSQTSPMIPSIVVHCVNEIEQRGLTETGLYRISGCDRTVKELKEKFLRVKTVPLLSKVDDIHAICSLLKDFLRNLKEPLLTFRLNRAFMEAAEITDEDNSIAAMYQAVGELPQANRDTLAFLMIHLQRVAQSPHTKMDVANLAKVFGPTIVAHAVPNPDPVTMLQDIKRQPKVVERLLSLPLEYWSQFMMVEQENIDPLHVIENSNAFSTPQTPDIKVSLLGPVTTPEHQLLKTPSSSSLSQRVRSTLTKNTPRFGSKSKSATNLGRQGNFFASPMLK
# [3] = Counterscreen for IDE inhibitors: Luminescence-based cell-based high throughput dose response assay to identify compounds that are cytotoxic to HEK cells. [Related pubchem assays: 434962 (Primary screen (IDE inhibitors in singlicate)), 449730 (Counterscreen (Cytotoxicity in triplicate)), 435028 (Confirmation (IDE inhibitors in triplicate)) …; format: functional; conditions: HEK293
# [4] = biological target: T2, Protein skinhead-1 (Caenorhabditis elegans, UniProt P34707); format: functional
# T2 sequence (P34707 whole entry): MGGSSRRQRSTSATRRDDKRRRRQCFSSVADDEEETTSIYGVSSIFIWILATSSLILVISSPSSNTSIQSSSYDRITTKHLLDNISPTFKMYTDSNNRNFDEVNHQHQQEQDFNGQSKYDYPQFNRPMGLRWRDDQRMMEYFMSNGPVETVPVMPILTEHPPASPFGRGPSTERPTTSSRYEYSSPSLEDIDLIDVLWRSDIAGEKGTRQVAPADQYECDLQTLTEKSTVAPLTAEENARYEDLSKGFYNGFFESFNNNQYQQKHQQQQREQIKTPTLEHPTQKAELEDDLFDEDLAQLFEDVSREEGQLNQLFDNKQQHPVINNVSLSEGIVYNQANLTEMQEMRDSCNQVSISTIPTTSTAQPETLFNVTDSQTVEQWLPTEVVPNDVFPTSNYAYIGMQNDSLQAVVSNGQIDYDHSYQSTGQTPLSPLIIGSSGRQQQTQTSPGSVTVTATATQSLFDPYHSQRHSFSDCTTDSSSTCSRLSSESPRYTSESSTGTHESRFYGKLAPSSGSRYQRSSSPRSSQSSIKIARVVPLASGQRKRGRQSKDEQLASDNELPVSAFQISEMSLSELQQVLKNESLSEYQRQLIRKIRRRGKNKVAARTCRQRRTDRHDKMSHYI
# [5] = biological target: T3, Insulin-degrading enzyme (Homo sapiens, UniProt P14735); experiment: Dose Response: Fluorescence polarization-based cell-based high throughput dose response assay for inhibitors of insulin-degrading enzyme (IDE). [Related pubchem assays: 434962 (Primary screen (IDE inhibitors in singlicate)), 449730 (Counterscreen (Cytotoxicity in triplicate)), 435028 (Confirmation (IDE inhibitors in triplicate)), 434984 (Summary …; format: functional
# T3 sequence (P14735 whole entry): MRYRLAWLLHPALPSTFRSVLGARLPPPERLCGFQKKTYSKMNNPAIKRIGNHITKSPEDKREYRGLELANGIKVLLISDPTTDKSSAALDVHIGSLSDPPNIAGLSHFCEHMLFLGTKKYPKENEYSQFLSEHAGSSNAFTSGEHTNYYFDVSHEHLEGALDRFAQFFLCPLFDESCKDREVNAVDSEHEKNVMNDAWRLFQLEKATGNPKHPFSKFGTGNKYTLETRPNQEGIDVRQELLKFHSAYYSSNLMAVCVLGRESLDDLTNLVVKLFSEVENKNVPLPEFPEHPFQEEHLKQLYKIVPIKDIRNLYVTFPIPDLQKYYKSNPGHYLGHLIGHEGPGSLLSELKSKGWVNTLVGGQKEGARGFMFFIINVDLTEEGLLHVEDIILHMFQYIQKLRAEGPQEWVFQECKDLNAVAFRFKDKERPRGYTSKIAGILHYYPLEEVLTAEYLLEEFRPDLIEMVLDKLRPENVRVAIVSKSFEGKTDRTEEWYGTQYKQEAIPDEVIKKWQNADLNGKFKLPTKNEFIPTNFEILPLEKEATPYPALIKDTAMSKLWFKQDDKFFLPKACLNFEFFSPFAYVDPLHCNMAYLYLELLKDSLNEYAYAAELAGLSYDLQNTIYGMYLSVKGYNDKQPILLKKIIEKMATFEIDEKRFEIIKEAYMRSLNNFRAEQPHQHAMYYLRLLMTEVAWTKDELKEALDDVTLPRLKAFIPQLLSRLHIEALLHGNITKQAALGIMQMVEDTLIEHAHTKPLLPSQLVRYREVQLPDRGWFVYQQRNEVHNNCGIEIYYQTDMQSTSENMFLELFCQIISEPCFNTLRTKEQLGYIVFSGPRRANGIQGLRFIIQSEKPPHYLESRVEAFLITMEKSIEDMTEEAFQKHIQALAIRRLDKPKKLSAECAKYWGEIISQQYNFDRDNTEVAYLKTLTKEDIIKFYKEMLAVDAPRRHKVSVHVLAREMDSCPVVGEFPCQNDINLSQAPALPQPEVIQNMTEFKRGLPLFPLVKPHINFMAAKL
# [6] = MC4R antagonists, dose response, counter-screen for LGR2 antagonist project, cell-based, plate reader, cherry pick (AID 743444); format: functional;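 note: transfected HEK 293 cells stimulated with alpha-MSH peptide; potency of inhibitors of the alpha-MSH evoked signal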
# [7] = Luminescence-based counterscreen assay for KLF5 inhibitors: dose response cell-based high throughput screening assay to identify cytotoxic compounds using the IEC-6 intestinal epithelial cell line. [Related pubchem assays: 1700 (Primary screen.), 1834 (Confirmation screen.), 1858 (Summary AID.), 1905 (Counterscreen.)]; format: functional
# [8] = A549 cell cytotoxicity, dose response, cytotoxicity control, plate reader, cherry-pick, antagonist series (AID 743412); format: functional, cell-based
# [9] = HepG2 cell cytotoxicity, dose response, cytotoxicity control, plate reader, cherry-pick, antagonist series (AID 743416); format: functional, cell-based
# [10] = LGR2 antagonists, dose response, cell-based, HEK293, CRE-luciferase reporter, cherry pick, set 2 (AID 743343); format: functional;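 note: transfected cells were stimulated with diluted bursicon conditioned medium after compound addition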
# [11] = biological target: Glyceraldehyde-3-phosphate dehydrogenase (Homo sapiens, UniProt P04406)
# [12] = biological target: T4, Tyrosine-protein phosphatase non-receptor type 7 (Homo sapiens, UniProt P35236); format: functional
# T4 sequence (P35236 whole entry): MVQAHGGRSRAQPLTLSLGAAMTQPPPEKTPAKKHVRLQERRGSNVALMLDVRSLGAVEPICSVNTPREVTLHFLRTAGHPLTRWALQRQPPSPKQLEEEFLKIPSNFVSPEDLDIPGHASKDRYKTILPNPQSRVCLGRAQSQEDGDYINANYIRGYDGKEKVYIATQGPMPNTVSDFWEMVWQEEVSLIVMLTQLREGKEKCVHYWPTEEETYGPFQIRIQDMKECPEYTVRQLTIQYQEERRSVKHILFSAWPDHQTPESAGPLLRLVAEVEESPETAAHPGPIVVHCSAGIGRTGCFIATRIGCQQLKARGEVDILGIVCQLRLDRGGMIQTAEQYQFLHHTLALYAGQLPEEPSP
# [13] = biological target: Heat shock cognate 71 kDa protein (Homo sapiens, UniProt P11142); experiment: In Vitro Hsc70 Dose Response Fluorescence Polarization Assay. [Related pubchem assays: 1072 ]
# [14] = biological target: T5, Dual specificity protein phosphatase 6 (Rattus norvegicus, UniProt Q64346)
# T5 sequence (Q64346 whole entry): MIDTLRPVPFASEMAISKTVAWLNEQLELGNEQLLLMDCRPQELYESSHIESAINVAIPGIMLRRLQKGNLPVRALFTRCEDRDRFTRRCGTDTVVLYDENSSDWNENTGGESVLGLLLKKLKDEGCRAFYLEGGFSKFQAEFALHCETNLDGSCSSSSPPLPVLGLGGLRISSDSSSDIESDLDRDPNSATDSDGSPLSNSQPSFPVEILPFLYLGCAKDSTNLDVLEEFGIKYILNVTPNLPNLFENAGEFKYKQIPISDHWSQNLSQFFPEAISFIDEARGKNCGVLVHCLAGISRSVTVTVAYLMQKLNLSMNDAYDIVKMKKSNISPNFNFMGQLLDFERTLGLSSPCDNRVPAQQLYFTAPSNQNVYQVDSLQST
# [15] = biological target: T5, Dual specificity protein phosphatase 6; format: functional
# [16] = biological target: Heat shock 70 kDa protein 1A (Homo sapiens, UniProt P0DMV8); experiment: Hsp70 inhibitors, SAR follow-up, biochemical, fluorescence polarization (AID 1072)
# [17] = biological target: Transitional endoplasmic reticulum ATPase (Homo sapiens, UniProt P55072); experiment: p97 ATPase inhibitors, dose response, biochemical (AID 1534)
# [18] = biological target: Transitional endoplasmic reticulum ATPase (Homo sapiens, UniProt P55072, C522A); experiment: C522A mutant p97 ATPase inhibitors, dose response, counter-screen for p97 inhibitor project, biochemical, luminescence (AID 1544)
# [19] = A Cell Based Secondary Assay To Explore Cytotoxicity of Compounds that Sensitize Mycobacterium Tuberculosis to Beta-Lactam Antibiotics.; format: functional
# Chain of Heat shock cognate 71 kDa protein (P11142 whole entry): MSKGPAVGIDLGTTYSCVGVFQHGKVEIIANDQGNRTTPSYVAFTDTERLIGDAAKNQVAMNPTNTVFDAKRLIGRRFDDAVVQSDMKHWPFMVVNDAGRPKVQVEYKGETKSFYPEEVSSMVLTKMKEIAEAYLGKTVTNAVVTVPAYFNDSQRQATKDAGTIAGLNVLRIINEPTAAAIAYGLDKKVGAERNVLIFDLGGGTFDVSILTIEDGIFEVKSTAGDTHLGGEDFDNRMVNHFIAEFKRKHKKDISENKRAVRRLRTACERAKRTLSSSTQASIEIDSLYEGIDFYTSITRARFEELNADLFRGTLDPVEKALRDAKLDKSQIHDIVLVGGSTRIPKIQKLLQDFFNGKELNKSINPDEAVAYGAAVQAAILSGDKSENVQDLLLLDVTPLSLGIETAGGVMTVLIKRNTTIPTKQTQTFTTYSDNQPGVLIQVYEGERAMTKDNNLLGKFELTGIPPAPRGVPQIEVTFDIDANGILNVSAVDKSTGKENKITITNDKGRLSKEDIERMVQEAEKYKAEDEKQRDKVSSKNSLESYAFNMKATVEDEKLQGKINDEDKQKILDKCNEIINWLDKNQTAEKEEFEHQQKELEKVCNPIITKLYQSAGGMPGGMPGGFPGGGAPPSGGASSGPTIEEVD
# Chain of Transitional endoplasmic reticulum ATPase (Homo sapiens, UniProt P55072) (P55072 whole entry): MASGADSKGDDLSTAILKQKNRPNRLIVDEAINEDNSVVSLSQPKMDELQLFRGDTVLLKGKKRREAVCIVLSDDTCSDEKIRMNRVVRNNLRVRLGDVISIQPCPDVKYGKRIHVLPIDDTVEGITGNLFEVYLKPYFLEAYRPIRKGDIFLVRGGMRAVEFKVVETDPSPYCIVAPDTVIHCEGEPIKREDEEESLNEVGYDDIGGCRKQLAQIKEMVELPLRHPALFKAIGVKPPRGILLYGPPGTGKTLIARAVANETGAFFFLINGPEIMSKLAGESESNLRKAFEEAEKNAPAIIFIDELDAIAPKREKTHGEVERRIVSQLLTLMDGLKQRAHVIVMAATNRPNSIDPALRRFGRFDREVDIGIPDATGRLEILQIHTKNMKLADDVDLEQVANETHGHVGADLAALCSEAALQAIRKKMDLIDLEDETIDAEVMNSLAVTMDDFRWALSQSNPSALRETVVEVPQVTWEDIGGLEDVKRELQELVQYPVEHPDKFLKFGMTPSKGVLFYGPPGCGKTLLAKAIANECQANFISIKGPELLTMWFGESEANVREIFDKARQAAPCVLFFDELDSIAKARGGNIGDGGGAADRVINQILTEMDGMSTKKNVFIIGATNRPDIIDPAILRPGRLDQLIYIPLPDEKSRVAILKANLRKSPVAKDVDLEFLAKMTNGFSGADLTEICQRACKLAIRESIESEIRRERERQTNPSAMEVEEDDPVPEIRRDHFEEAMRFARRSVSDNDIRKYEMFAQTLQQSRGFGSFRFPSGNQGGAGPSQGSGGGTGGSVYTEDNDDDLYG
# Chain of Heat shock 70 kDa protein 1A (P0DMV8 whole entry): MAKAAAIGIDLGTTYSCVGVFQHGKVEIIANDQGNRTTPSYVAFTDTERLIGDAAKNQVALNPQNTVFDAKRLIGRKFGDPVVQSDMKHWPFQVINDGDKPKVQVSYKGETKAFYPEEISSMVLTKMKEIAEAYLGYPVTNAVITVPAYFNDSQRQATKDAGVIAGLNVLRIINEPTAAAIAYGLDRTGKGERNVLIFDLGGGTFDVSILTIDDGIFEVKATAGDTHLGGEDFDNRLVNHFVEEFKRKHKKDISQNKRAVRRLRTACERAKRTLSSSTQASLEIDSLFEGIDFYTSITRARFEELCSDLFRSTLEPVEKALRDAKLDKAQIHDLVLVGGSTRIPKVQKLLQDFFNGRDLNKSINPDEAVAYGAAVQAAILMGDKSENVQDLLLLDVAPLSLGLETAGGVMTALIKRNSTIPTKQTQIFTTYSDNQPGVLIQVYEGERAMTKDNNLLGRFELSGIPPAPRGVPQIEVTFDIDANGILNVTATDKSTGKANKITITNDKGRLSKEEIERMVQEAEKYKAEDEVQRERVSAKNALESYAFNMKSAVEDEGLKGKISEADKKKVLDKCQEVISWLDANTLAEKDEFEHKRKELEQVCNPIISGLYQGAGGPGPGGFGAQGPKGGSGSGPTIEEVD
# Chain of Transitional endoplasmic reticulum ATPase (Homo sapiens, UniProt P55072, C522A) (P55072 2-806 C522A limits assumed): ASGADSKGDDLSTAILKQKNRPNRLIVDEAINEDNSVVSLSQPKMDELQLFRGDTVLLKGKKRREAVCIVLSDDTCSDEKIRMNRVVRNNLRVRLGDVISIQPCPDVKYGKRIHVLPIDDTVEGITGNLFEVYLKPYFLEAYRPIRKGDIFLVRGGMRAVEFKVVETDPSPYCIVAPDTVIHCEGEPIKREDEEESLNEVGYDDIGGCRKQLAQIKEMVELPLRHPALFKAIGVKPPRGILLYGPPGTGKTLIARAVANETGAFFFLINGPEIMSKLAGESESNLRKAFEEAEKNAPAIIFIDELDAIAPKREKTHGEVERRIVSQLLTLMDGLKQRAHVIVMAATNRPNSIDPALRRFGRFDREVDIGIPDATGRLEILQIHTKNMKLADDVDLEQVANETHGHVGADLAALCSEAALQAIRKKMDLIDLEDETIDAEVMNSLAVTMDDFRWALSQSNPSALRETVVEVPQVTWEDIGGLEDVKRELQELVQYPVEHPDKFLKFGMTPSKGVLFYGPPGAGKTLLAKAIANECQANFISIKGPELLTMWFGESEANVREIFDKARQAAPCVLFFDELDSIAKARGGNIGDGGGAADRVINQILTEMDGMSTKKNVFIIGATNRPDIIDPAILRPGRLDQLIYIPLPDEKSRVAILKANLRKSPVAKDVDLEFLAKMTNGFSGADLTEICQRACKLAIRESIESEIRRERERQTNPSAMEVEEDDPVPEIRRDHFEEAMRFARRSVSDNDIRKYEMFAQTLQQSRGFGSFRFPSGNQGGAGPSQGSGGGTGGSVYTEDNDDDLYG
# Chain of Glyceraldehyde-3-phosphate dehydrogenase (P04406 whole entry): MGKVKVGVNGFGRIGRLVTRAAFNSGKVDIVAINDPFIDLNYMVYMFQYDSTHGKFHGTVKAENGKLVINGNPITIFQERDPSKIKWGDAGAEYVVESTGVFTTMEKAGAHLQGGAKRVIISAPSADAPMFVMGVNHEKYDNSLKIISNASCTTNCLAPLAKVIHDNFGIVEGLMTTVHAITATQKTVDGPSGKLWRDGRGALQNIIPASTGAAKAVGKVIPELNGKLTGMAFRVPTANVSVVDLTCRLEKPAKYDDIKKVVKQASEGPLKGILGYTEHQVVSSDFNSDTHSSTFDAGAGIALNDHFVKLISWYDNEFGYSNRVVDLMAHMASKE
smiles,measurement,setting,value
Cc1c(N2C(=O)/C(=C\c3ccc(N(C)C)cc3)N(C)C2=S)c(=O)n(-c2ccccc2)n1C,EC50,[1],> 100 µM (active)
same,IC50,[2],74.4 µM (active)
same,IC50,[3],37.9 µM (not active)
same,IC50,[4],57.2 µM (inactive)
same,IC50,[5],13.9 µM (not active)
COc1ccc(Cl)cc1C(=O)Nc1nc2ccccc2[nH]1,AC50,[6],2.46 µM (active)
same,IC50,[7],> 39.8 µM (not active)
same,AC50,[8],> 52 µM (inactive)
same,AC50,[9],> 52 µM (inactive)
same,AC50,[10],2.05 µM (active)
O=C(O)C1Nc2cc(Cl)cc(Cl)c2C2C=CCC12 (centres undefined),IC50,[11],62.7 µM (active)
same,IC50,[12],> 100 µM (not active)
same,IC50,[13],53 µM (active)
same,IC50,[14],61.6 µM (active)
same,IC50,[15],> 100 µM (inactive)
same,IC50,[16],18.1 µM (active)
COc1ccc2ccccc2c1/C=N/NC(=O)c1sc(N)c(C#N)c1C,IC50,[17],2.58 µM (active)
same,IC50,[18],> 50 µM (not active)
CCOc1ccc(/C=N/NC(=O)c2ccccc2O)cc1CN1CC2CC(C1)c1cccc(=O)n1C2 (centres undefined),CC50,[19],23 µM (active)
